Results from the CombiSolv-Exp solvation set (Vermeire and Green 2021).

Test: solvent given as SMILES

CN(C)C(=O)Nc1ccc(Cl)cc1
Conditions	solvation free energy, 298 K [kcal/mol]
in C1CCOC1	-13.7
in CC(C)CC(C)(C)C	-9.58
in CC(C)CCO	-13.1
in CC(C)CO	-13.1
in CC(C)O	-13.1
in CCC(C)O	-13.1
in CCCC(C)O	-13
in CCCCC(CC)CO	-12.8
in CCCCCC	-9.81
in CCCCCCC	-9.75
in CCCCCCCC	-9.79
in CCCCCCCCCC	-9.8
in CCCCCCCCCCO	-12.8
in CCCCCCCO	-13
in CCCCCCO	-13.2
in CCCCCO	-13.2
in CCCCO	-13.3
in CCCCOC(C)=O	-12.8
in CCCCOCCCC	-11.6
in CCCO	-13.3
in CCO	-13.4
in CCOC(C)=O	-13.1
in CO	-13.7
in COC(C)=O	-13.1
in ClC(Cl)(Cl)Cl	-11.1
in ClC(Cl)Cl	-13.3
in ClCCCl	-13
in ClCCl	-13.3
in O	-10.4

Clc1ccccc1Cl
Conditions	solvation free energy, 298 K [kcal/mol]
in C1CCOC1	-7.11
in C1COCCO1	-7.01
in CCCCCC	-6.14
in CCCCCCC	-6.01
in CCCCCCCCCCCCCCCC	-6.04
in CCCCCCCCO	-5.95
in CN(C)C=O	-6.82
in ClC(Cl)(Cl)Cl	-6.79
in N#Cc1ccccc1	-6.82
in NC=O	-4.55
in O	-1.4

COc1cccc(OC)c1O
Conditions	solvation free energy, 298 K [kcal/mol]
in O	-6.96

FC(F)(F)c1cccc(C(F)(F)F)c1
Conditions	solvation free energy, 298 K [kcal/mol]
in O	1.07

CCC(O)CC
Conditions	solvation free energy, 298 K [kcal/mol]
in O	-4.35

CCC=CCC=CCC=CCCCCCCCC(=O)OC
Conditions	solvation free energy, 298 K [kcal/mol]
in O	-3.47

O=C1c2ccccc2C(=O)c2c(NCCO)cccc21
Conditions	solvation free energy, 298 K [kcal/mol]
in O	-14.2

CN
Conditions	solvation free energy, 298 K [kcal/mol]
in CCCCCC	-1.64
in CCCCO	-2.89
in CN(C)C=O	-2.66
in ClC(Cl)(Cl)Cl	-2.33
in ClC(Cl)Cl	-3.16
in O	-4.56

CC(C)CO
Conditions	solvation free energy, 298 K [kcal/mol]
in Brc1ccccc1	-4.23
in C1CCCCC1	-3.98
in CC(=O)N(C)C	-6.04
in CC(C)(C)O	-5.95
in CC(C)CC(C)(C)C	-3.55
in CC(C)CCCC(C)CCCC(C)CCCCC(C)CCCC(C)CCCC(C)C	-3.1
in CCC(C)=O	-5.43
in CCC(C)O	-5.95
in CCCCCC	-3.58
in CCCCCCC	-3.51
in CCCCCCCC	-3.33
in CCCCCCCCCCCCCCCC	-3.25
in CCCCCCCCCCO	-5.43
in CCCCCCCCO	-5.36
in CCCCCO	-5.73
in CCCCCl	-4.41
in CCCCN(C=O)CCCC	-5.76
in CCCCO	-5.74
in CCCCOC(C)=O	-4.84
in CCCOCCC	-4.78
in CCOC(=O)c1ccccc1C(=O)OCC	-4.88
in CCOP(=O)(OCC)OCC	-5.79
in CN1CCCC1=O	-6.03
in CN1CCN(C)C1=O	-5.9
in CNC(C)=O	-5.91
in CO	-6.18
in Cc1ccc(C)cc1	-4.25
in Cc1cccc(C)c1	-4.1
in Clc1ccccc1	-4.26
in O	-4.52
in O=CN1CCOCC1	-5.3
in OCCOCCO	-5.51
in [2H]O[2H]	-4.59

O=[N+]([O-])c1cc(Cl)ccc1Cl
Conditions	solvation free energy, 298 K [kcal/mol]
in C1CCCCC1	-8.11
in CC1CCCCC1	-8.06
in CC#N	-9.34
in CC(C)CC(C)(C)C	-7.63
in CC(C)CCO	-8.13
in CC(C)CO	-8.01
in CC(C)O	-8.07
in CCC(C)O	-7.92
in CCCCCC	-7.77
in CCCCCCC	-7.77
in CCCCCCCC	-7.75
in CCCCCCCCCC	-7.74
in CCCCCCCCCCCC	-7.71
in CCCCCCCCCO	-8.13
in CCCCCCCCO	-8.18
in CCCCCCCO	-8.19
in CCCCCCO	-8.22
in CCCCCO	-8.23
in CCCCO	-8.23
in CCCO	-8.23
in CCO	-8.32
in COC(C)=O	-9.35
in Cc1cccc(C)c1	-9.25
in Cc1ccccc1	-9.28

BrCCBr
Conditions	solvation free energy, 298 K [kcal/mol]
in C1COCCO1	-5.84
in ClC(Cl)(Cl)Cl	-5.33
in O	-2.2

CC1=CC2C(CC1)C2(C)C (stereo not given)
Conditions	solvation free energy, 298 K [kcal/mol]
in O	0.78

CC1=CC2C(=C(C)CCC2C(C)C)CC1 (stereo not given)
Conditions	solvation free energy, 298 K [kcal/mol]
in O	-0.4

O=c1c2ccccc2sc2ccccc12
Conditions	solvation free energy, 298 K [kcal/mol]
in C1CCOC1	-13.2
in C1COCCO1	-12.9
in CC(C)CC(C)(C)C	-10.7
in CC(C)CCO	-11.8
in CC(C)CO	-11.7
in CC(C)O	-11.9
in CC(C)OC(C)C	-11.6
in CC(C)OCCO	-12.3
in CCC(C)O	-11.8
in CCCC(=O)OC	-12.5
in CCCC(C)CO	-11.9
in CCCC(C)O	-11.9
in CCCCC(CC)CO	-12
in CCCCCC	-10.9
in CCCCCCC	-11
in CCCCCCCC	-11.1
in CCCCCCCCC=CCCCCCCCC(=O)OCC(COC(=O)CCCCCCCC=CCCCCCCCC)OC(=O)CCCCCCCC=CCCCCCCCC	-11.8
in CCCCCCCCCCO	-12.1
in CCCCCCCCO	-12.1
in CCCCCCCO	-12
in CCCCCCO	-12
in CCCCCO	-11.9
in CCCCCOC(C)=O	-12.4
in CCCCO	-11.9
in CCCCOC(C)=O	-12.4
in CCCCOCCCC	-11.7
in CCCCOCCO	-12.4
in CCCO	-11.8
in CCCOCCO	-12.4
in CCO	-11.9
in CCOC(C)=O	-12.5
in CCOCCO	-12.4
in CO	-11.5
in COC(C)(C)C	-11.9
in COC(C)=O	-12.6
in Cc1ccc(C)cc1	-12.6
in Cc1cccc(C)c1	-12.6
in Cc1ccccc1C	-12.7
in O	-6.9

Cc1ccc(C)c(C)c1
Conditions	solvation free energy, 298 K [kcal/mol]
in O	-0.83

FC(F)=CCl
Conditions	solvation free energy, 298 K [kcal/mol]
in CCCCCCCC(=O)OCC(COC(=O)CCCCCCC)OC(=O)CCCCCCC	-1.77
in CCCCCCCCO	-1.69
in CN1CCCC1=O	-2.26
in CN(C)C=O	-1.99
in O	0.52

CC(C(=O)O)c1ccc(-c2ccccc2)c(F)c1 (stereo not given)
Conditions	solvation free energy, 298 K [kcal/mol]
in C1COCCO1	-16.2
in CC(C)=O	-16.1
in CCCCCCCO	-15.6
in CCCCCCO	-15.6
in CCCCCO	-15.7
in CCCCO	-15.7
in CCCO	-15.8
in CCO	-15.9
in CCOC(C)=O	-15.9
in CO	-15.9
in O	-8.42

CC(C)CC(=O)CC(C)C
Conditions	solvation free energy, 298 K [kcal/mol]
in CCCCCCC	-6.13
